SMILES strings stand for the structures. Square brackets hold non-standard residues; d marks the D form. Side chains are listed from the residue outwards. Peptide text beside a SMILES is read from it. Phe(3,4-F2) = N[C@@H](Cc1ccc(F)c(F)c1)C(=O)O; Phe(4-F) = N[C@@H](Cc1ccc(F)cc1)C(=O)O; d2Nal = N[C@H](Cc1ccc2ccccc2c1)C(=O)O; Tle = CC(C)(C)[C@H](N)C(=O)O; dNle = CCCC[C@@H](N)C(=O)O

We go through six compounds from patent publication US10736932B2, “Small molecule Ras inhibitors” (Ohio State Innovation Foundation, priority 2014, dated 2020).

The assay concerns the target T1, K-Ras / Raf RBD interaction (Homo sapiens, UniProt P01116, G12V).
T1 construct: The G12V mutant K-Ras (amino acids 1-185) was recombinantly fused; GST (N, cleaved yes); made in house; host or cells: Escherichia coli BL21
Description: HTRF assay, inhibition of Ras-Raf RBD interaction.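 As to all read-outs here: HTRF signal read after overnight incubation of the assay plate at 4 °C.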 It is filed as binding. Conditions: for increase in Ras binding affinity upon residue substitution: relative to parent 9A5/9A6. A general note: TR-FRET usually uses a lanthanide donor and a delayed reading to cut background.

`C[C@H]1NC(=O)[C@H]([C@@H](C)O)NC(=O)[C@H](Cc2c[nH]c3ccccc23)NC(=O)[C@H](CCC(N)=O)NC(=O)[C@@H](CCCNC(=N)N)NC(=O)[C@H](Cc2ccc(F)cc2)NC(=O)[C@H](CCCNC(=N)N)NC(=O)[C@@H](Cc2ccc3ccccc3c2)NC(=O)[C@H](CCCNC(=N)N)NC(=O)[C@H](CCCNC(=N)N)NC(=O)[C@H](CCCNC(=N)N)NC1=O` [Cyclorasin 9A45, (Trp-Thr-ala-Arg-Arg-Arg-nal-Arg-Fpa-arg-Gln)] (cyclo(WT[dA]RRR[d2Nal]R[Phe(4-F)][dR]Q)): the IC50 is 0.036 ± 0.004 µM and the “increase in Ras binding affinity upon residue substitution” value is listed as 4 fold.

Take `CCCC[C@H]1NC(=O)[C@H](Cc2ccc(F)cc2)NC(=O)[C@H](CCCNC(=N)N)NC(=O)[C@@H](Cc2ccc3ccccc3c2)NC(=O)[C@H](CCCNC(=N)N)NC(=O)[C@H](CCCNC(=N)N)NC(=O)[C@@H](CCCNC(=N)N)NC(=O)[C@@H](C(C)C)NC(=O)[C@H]([C@@H](C)O)NC(=O)[C@H](Cc2c[nH]c3ccccc23)NC(=O)[C@H](CCC(N)=O)NC1=O` [Cyclorasin 9A14, (Trp-Thr-val-arg-Arg-Arg-nal-Arg-Fpa-nle-Gln)] (cyclo(WT[dV][dR]RR[d2Nal]R[Phe(4-F)][dNle]Q)): the IC50 worked out at 0.13 ± 0.07 µM and the “increase in Ras binding affinity upon residue substitution” value is around 2 fold.

`CCCC[C@H]1NC(=O)[C@H](Cc2ccc(F)cc2)NC(=O)[C@H](CCCNC(=N)N)NC(=O)[C@@H](Cc2ccc3ccccc3c2)NC(=O)[C@H](CCCNC(=N)N)NC(=O)[C@H](CCCNC(=N)N)NC(=O)[C@@H](CCCNC(=N)N)NC(=O)[C@@H](CC(C)C)NC(=O)[C@H]([C@@H](C)O)NC(=O)[C@H](Cc2c[nH]c3ccccc23)NC(=O)[C@H](CCC(N)=O)NC1=O` [Cyclorasin 9A15, (Trp-Thr-leu-arg-Arg-Arg-nal-Arg-Fpa-nle-Gln)] (cyclo(WT[dL][dR]RR[d2Nal]R[Phe(4-F)][dNle]Q)) yielded an IC50 of 0.11 ± 0.04 µM.

Compound `CCCC[C@H]1NC(=O)[C@H](Cc2ccc(F)cc2)NC(=O)[C@H](CCCNC(=N)N)NC(=O)[C@@H](Cc2ccc3ccccc3c2)NC(=O)[C@H](CCCNC(=N)N)NC(=O)[C@H](CCCNC(=N)N)NC(=O)[C@H](CCC(=O)N[C@@H](CCCCN)C(N)=O)NC(=O)[C@@H](C)NC(=O)[C@H]([C@@H](C)O)NC(=O)[C@H](Cc2c[nH]c3ccccc23)NC(=O)[C@@H](C)NC1=O` [Cyclorasin 9A(ser7dA), (Arg-Arg-nal-Arg-Fpa-nle-ala-Trp-Thr-ala-Gln)-Lys] (cyclo(RR[d2Nal]R[Phe(4-F)][dNle][dA]WT[dA]E([Lys-NH2]))) returned an IC50 of 0.77 ± 0.49 µM.

For the compound `CCCC[C@H]1NC(=O)[C@H](Cc2ccc(F)cc2)NC(=O)[C@H](C)NC(=O)[C@@H](Cc2ccc3ccccc3c2)NC(=O)[C@H](CCCNC(=N)N)NC(=O)[C@H](CCCNC(=N)N)NC(=O)[C@H](CCC(=O)N[C@@H](CCCCN)C(N)=O)NC(=O)[C@@H](C)NC(=O)[C@H]([C@@H](C)O)NC(=O)[C@H](Cc2c[nH]c3ccccc23)NC(=O)[C@@H](CO)NC1=O` [Cyclorasin 9A(Arg4A), (Arg-Arg-nal-Ala-Fpa-nle-ser-Trp-Thr-ala-Gln)-Lys] (cyclo(RR[d2Nal]A[Phe(4-F)][dNle][dS]WT[dA]E([Lys-NH2]))), the concentration for half-maximal inhibition (IC50) is 0.39 ± 0.28 µM.

On to `CCCC[C@H]1NC(=O)[C@H](Cc2ccc(F)c(F)c2)NC(=O)[C@H](CCCNC(=N)N)NC(=O)[C@@H](Cc2ccc3ccccc3c2)NC(=O)[C@H](CCCNC(=N)N)NC(=O)[C@H](CCCNC(=N)N)NC(=O)[C@@H](CCCNC(=N)N)NC(=O)[C@@H](C(C)C)NC(=O)[C@H](C(C)(C)C)NC(=O)[C@H](Cc2c[nH]c3ccccc23)NC(=O)[C@H](CCC(N)=O)NC1=O` [Cyclorasin 9A51, (Trp-Tle-val-arg-Arg-Arg-nal-Arg-Phe(3,4-difluoro)-nle-Gln)] (cyclo(W[Tle][dV][dR]RR[d2Nal]R[Phe(3,4-F2)][dNle]Q)), for which the midpoint of inhibition, the IC50, lay at 0.015 µM.

Usually IC50 stands for the concentration at which inhibition is half-maximal. High values mean a need for much substance, low ones inhibition by little substance.
